Experimental data reported in patent publication US8822691B2, “Pesticidal carboxamides” (Bayer CropScience AG, priority 2009, dated 2014).

Assays:
Type in all cases: in vivo
Aulacophora femoralis = assay: Test against cucurbit leaf beetle (Aulacophora femoralis), leaf dip; settings: Aulacophora, foliar, 168 h; active compound concentration of 500 ppm; second instar larvae on cucumber leaves; after 7 days; read-out: insecticidal activity
Outline: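 Cucumber leaves dipped in compound solution (DMF/polyoxyethylene alkyl phenyl ether formulation diluted in water), air-dried and given five second-instar larvae on sterilized soil at 25 °C. Dead larvae counted after 7 days and expressed as % insecticidal activity.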

Tetranychus urticae = assay: Test against two-spotted spider mite (Tetranychus urticae), spray; settings: Tetranychus urticae, 168 h; active compound concentration of 500 ppm; adult mites on kidney bean; after 7 days; read-out: acaricidal activity
Boophilus microplus [1] = assay: Boophilus microplus (dip); settings: Rhipicephalus microplus, 168 h, read-out: activity (mortality)
Procedure: Solvent: Dimethylsulfoxid
To produce a suitable preparation of active compound, 10 mg of active compound are dissolved in 0.5 ml solvent, and the concentrate is diluted with water to the desired concentration. Eight to ten adult engorged female Boophilus microplus ticks are placed in perforated plastic beakers and immersed in aqueous compound solution for one minute. Ticks are transferred to a filter paper in a plastic tray. Egg deposition of fertile eggs is monitored after. After 7 days mortality in % is determined. 100% means that all the ticks have been killed; 0% means that none of the ticks have been killed.

Spodoptera litura = assay: Test against tobacco cutworm (Spodoptera litura) larvae, leaf dip; settings: foliar, 168 h; active compound concentration of 100 ppm; third instar larvae on sweet potato leaves; after 7 days; read-out: insecticidal activity
Boophilus microplus [2] = assay: Boophilus microplus-test (injection); settings: Rhipicephalus microplus, 168 h, read-out: activity (mortality in %; 100% means that all eggs are infertile)
Procedure: (§1) Solvent: dimethyl sulfoxide
To produce a suitable preparation of active compound, 10 mg of active compound are dissolved in 0.5 ml solvent, and the concentrate is diluted with solvent to the desired concentration. Five adult engorged female ticks (Boophilus microplus) are injected with 1 μl compound solution into the abdomen. Ticks are transferred into replica plates and incubated in a climate chamber for a period of time. Egg deposition of fertile eggs is monitored.
After 7 days mortality in % is determined. 100% means that all eggs are infertile; 0% means that all eggs are fertile.

Ctenocephalides felis = assay: Ctenocephalides felis-test (CTECFE); settings: Ctenocephalides felis, in Bos taurus, 48 h, read-out: activity (mortality), application rate of 100 ppm in cattle blood; adult unfed fleas; after 2 days
Procedure: as §1
To produce a suitable preparation of active compound, 10 mg of active compound are dissolved in 0.5 ml solvent, and the concentrate is diluted with cattle blood to the desired concentration. Approximately 20 adult unfed (Ctenocepahlides felis) are placed in flea chambers. The blood chamber, sealed with parafilm on the bottom, are filled with cattle blood supplied with compound solution and placed on top of the flea chamber, so that the fleas are able to suck the blood. The blood chamber is heated to 37° C. whereas the flea chamber is kept at room temperature. After 2 days mortality in % is determined. 100% means that all the fleas have been killed; 0% means that none of the fleas have been killed.

Musca domestica = assay: Musca domestica-test; settings: Musca domestica, 48 h, read-out: activity (mortality)
Procedure: as §1
To produce a suitable preparation of active compound, 10 mg of active compound are dissolved in 0.5 ml solvent, and the concentrate is diluted with water to the desired concentration. Prior to the assay, a piece of kitchen sponge is soaked with a mixture of sugar and compound solution and placed into a container. 10 adults (Musca domestica) are placed into the container and closed with a perforated lid. After 2 days mortality in % is determined. 100% means that all the flies have been killed; 0% means that none of the flies have been killed.

Lucilia cuprina = Lucilia cuprina (48 h) larval test; settings: Lucilia cuprina, 48 h, read-out: activity (larval mortality)
Procedure: Species: Lucilia cuprina 1st instar larvae (age 24 hrs)
as §1
10 mg active compound are dissolve in 0.5 ml dimethyl sulfoxide. Serial dilutions are made to obtain the desired rates. Approximately 20 Lucilia cuprina 1st instar larvae are transferred into a test tube containing 1 cm^3 of minced horse meat and 0.5 ml aqueous dilution of test compound. After 48 hrs percentage of larval mortality are recorded. 100% efficacy all larvae are killed, % efficacy normally developed larvae after 48 hrs.

SMILES | pest or weed control at 500 ppm (Aulacophora femoralis) | pest or weed control at 500 ppm (Tetranychus urticae) | mortality at 100 ppm (Boophilus microplus [1]) | pest or weed control at 100 ppm (Spodoptera litura) | mortality at 0.02 mg (Boophilus microplus [2]) | mortality at 100 ppm (Ctenocephalides felis) | mortality at 100 ppm (Musca domestica) | mortality at 100 ppm (Lucilia cuprina)
N#Cc1ccc2cc(C(=O)Nc3c(Br)cc(C(F)(C(F)(F)F)C(F)(F)C(F)(F)F)cc3OC(F)F)ccc2n1 (stereo not drawn) [Compound No. 2-173, N-[2-bromo-6-(difluoromethoxy)-4-(1,1,1,2,3,3,4,4,4-nonafluorobutan-2-yl)phenyl]-2-cyanoquinoline-6-carboxamide] | 100% | 100% | 100% | 100% |  |  |  | 
N#Cc1ccc2cc(C(=O)Nc3c(I)cc(C(F)(C(F)(F)F)C(F)(F)C(F)(F)F)cc3OC(F)F)ccc2n1 (stereo not drawn) [Compound No. 2-176, 2-cyano-N-[2-(difluoromethoxy)-6-iodo-4-(1,1,1,2,3,3,4,4,4-nonafluorobutan-2-yl)phenyl]quinoline-6-carboxamide] | 100% | 100% | 100% | 100% | 100% | 90% | 100% | 100%
N#Cc1ccc2cc(C(=O)Nc3c(Br)cc(C(F)(C(F)(F)F)C(F)(F)Br)cc3OC(F)F)ccc2n1 (stereo not drawn) [Compound No. 2-203, N-[2-bromo-4-(1-bromo-1,1,2,3,3,3-hexafluoropropan-2-yl)-6-(difluoromethoxy)phenyl]-2-cyanoquinoline-6-carboxamide] | 100% | 100% | 100% | 100% | 100% | 100% | 100% | 100%
N#Cc1ccc2cc(C(=O)Nc3c(Br)cc(C(F)(C(F)(F)F)C(F)(F)F)cc3OC(F)F)ccc2n1 [Compound No. 2-154, N-[2-bromo-6-(difluoromethoxy)-4-(1,1,1,2,3,3,3-heptafluoropropan-2-yl)phenyl]-2-cyanoquinoline-6-carboxamide] | 100% | 100% | 90% | 100% |  |  |  | 
